The first data set deals with HCT-116 cells.
Test: not given
The conditions noted are these: MTT assay; read-out: IC50 HCT116; cited from earlier work. A general note: Tetrazolium assays rely on reduction of a dye to a coloured formazan, in cell work by metabolically active cells.
On to `COc1cccc2c1C(=O)c1c(O)c3c(c(O)c1C2=O)C[C@@](O)(C(=O)CO)C[C@@H]3O[C@H]1C[C@H](N)[C@H](O)[C@H](C)O1` [DX, doxorubicin, reference compound], for which the IC50 (as a rule, the point on the concentration scale where inhibition reaches its midpoint) was 0.59 ± 0.02 µM.
As to `CN(C)CCCN1c2cc(Cl)ccc2Sc2cc3ccccc3nc21` [compound 2], the IC50 was 1.6 µM.
For `Clc1ccc2c(c1)N(CCN1CCCC1)c1nc3ccccc3cc1S2` [compound 3], the 50% inhibitory concentration (IC50) is 17.5 ± 1.4 µM.
Take `CN1CCCCC1CCN1c2cc(Cl)ccc2Sc2cc3ccccc3nc21` (centres unmarked) [compound 5]: the IC50 was 7.7 µM.

Staying with this data set, now noted: selectivity index vs HaCaT; cited from earlier work.
For the molecule `COc1cccc2c1C(=O)c1c(O)c3c(c(O)c1C2=O)C[C@@](O)(C(=O)CO)C[C@@H]3O[C@H]1C[C@H](N)[C@H](O)[C@H](C)O1` [DX, doxorubicin, reference compound], the “SI HCT116” value is 0.5.
As to `Clc1ccc2c(c1)N(CCN1CCCC1)c1nc3ccccc3cc1S2` [compound 3], the “SI HCT116” value is on record as 5.7.
In the case of `CN1CCCCC1CCN1c2cc(Cl)ccc2Sc2cc3ccccc3nc21` (centres unmarked) [compound 5], the “SI HCT116” value was 1.6.

A further data set relates to A549 cells.
Test: not given
The following applies: MTT assay; cited from earlier work.
Consider `COc1cccc2c1C(=O)c1c(O)c3c(c(O)c1C2=O)C[C@@](O)(C(=O)CO)C[C@@H]3O[C@H]1C[C@H](N)[C@H](O)[C@H](C)O1` [DX, doxorubicin, reference compound], for which the IC50 was 0.6 ± 0.2 µM.
In the case of `CN(C)CCCN1c2cc(Cl)ccc2Sc2cc3ccccc3nc21` [compound 2], the IC50 was 8.2 µM.
`Clc1ccc2c(c1)N(CCN1CCCC1)c1nc3ccccc3cc1S2` [compound 3]: the IC50 was 17.4 ± 4.1 µM.
For the molecule `CN1CCCCC1CCN1c2cc(Cl)ccc2Sc2cc3ccccc3nc21` (centres unmarked) [compound 5], the 50% inhibitory concentration (IC50) was 16 ± 4.2 µM.

The same data set, now with this note: selectivity index vs HaCaT; cited from earlier work.
As for `COc1cccc2c1C(=O)c1c(O)c3c(c(O)c1C2=O)C[C@@](O)(C(=O)CO)C[C@@H]3O[C@H]1C[C@H](N)[C@H](O)[C@H](C)O1` [DX, doxorubicin, reference compound], the “SI A549” value is listed as 0.14.
For `CN(C)CCCN1c2cc(Cl)ccc2Sc2cc3ccccc3nc21` [compound 2], the “SI A549” value was 7.6.
Take `Clc1ccc2c(c1)N(CCN1CCCC1)c1nc3ccccc3cc1S2` [compound 3]: the “SI A549” value is recorded as 5.7.
As for `CN1CCCCC1CCN1c2cc(Cl)ccc2Sc2cc3ccccc3nc21` (centres unmarked) [compound 5], the “SI A549” value was 1.

The same data set, now with this note: selectivity index vs HaCaT; listed as doxorubicin; cited from earlier work.
On to `COc1cccc2c1C(=O)c1c(O)c3c(c(O)c1C2=O)C[C@@](O)(C(=O)CO)C[C@@H]3O[C@H]1C[C@H](N)[C@H](O)[C@H](C)O1` [DX, doxorubicin, reference compound], for which the “SI A549” value is reported as 0.14–0.15.

Test system in the next data set: not listed separately
The experiment in a line: RP-TLC lipophilicity (RM0, log PTLC, C0), silica gel RP-18F254, acetone/TRIS buffer pH 7.4. It is filed as physicochemical. The conditions noted are these: RP-TLC, RM extrapolated to 0% acetone, TRIS buffer pH 7.4. The method, then: In connection with this, in the next stage of the study, the parameters of lipophilicity of the tested compounds were determined experimentally. […] This technique was used to determine the retardation coefficient Rf for each compound in eight mobile phases consisting of acetone and Tris buffer in different volume ratios (50–85% acetone). Next, the Rf values were converted to the chromatographic parameter RM, and then the obtained values were extrapolated to 0% acetone content in the mobile phase obtaining the lipophilicity parameter RM0 (Table S2).
The parameter RM0 can be correlated to an experimental log P lipophilicity parameter of chemical molecules (log PTLC) by applying a calibration curve. The calibration curve was obtained by determining the Rf value for standard substances with a known log Plit value using the RP-TLC method under conditions analogous to those of the tested substances. After calculating the RM and RM0 values, the dependence of the log Plit parameter on the experimentally obtained RM0 values for standards was determined (Table 2).
The chromatographic parameter of lipophilicity was determined by means of Soczewiński–Wachtmeister’s method. […] The acetone ratio was 50 to 85% (v/v) in increments of 5%. The tested compounds in the form of an ethanol solution at a concentration of 2.0 mg/mL each were spotted on chromatographic plates at an amount of 2 µL each. Before analysis, the chromatography chamber (Camag, Switzerland) was saturated with the mobile phase (50 mL) for 30 min. After development at 20 ± 2 °C and subsequent drying, the chromatograms were observed under UV light at 254 nm by using a Camag UV lamp (Muttenz, Switzerland). Each analysis was performed in triplicate. The average value of the retardation factor (Rf) was used to calculate RM using Equation (1):(1) RM=log(1−Rf/Rf)
In addition, the chromatographic parameter of lipophilicity RM0 and b value allowed the determination of the chromatography hydrophobic index C0 by using the following formula:(3) C0=− RM0/b
Turning to `CN(C)CCCN1c2cc(Cl)ccc2Sc2cc3ccccc3nc21` [compound 2], the RM0 was 3.77.
`Clc1ccc2c(c1)N(CCN1CCCC1)c1nc3ccccc3cc1S2` [compound 3]: the RM0 is listed as 3.96.
Still for that read-out and setting: the figure for `CN1CCCCC1CCN1c2cc(Cl)ccc2Sc2cc3ccccc3nc21` (centres unmarked) [compound 5] is 4.20.

Still in this data set, the particulars now being: chromatography hydrophobic index, C0 = −RM0/b.
Molecule `CN(C)CCCN1c2cc(Cl)ccc2Sc2cc3ccccc3nc21` [compound 2] gave a C0 of 70.60.
As to `Clc1ccc2c(c1)N(CCN1CCCC1)c1nc3ccccc3cc1S2` [compound 3], the C0 came to 73.88.
As for `CN1CCCCC1CCN1c2cc(Cl)ccc2Sc2cc3ccccc3nc21` (centres unmarked) [compound 5], the C0 is listed as 84.51.

The data set is the same for the next values; noted with them: from RM0 by calibration curve log PTLC = 1.2862RM0 + 0.2061.
For `CN(C)CCCN1c2cc(Cl)ccc2Sc2cc3ccccc3nc21` [compound 2], the “log PTLC” value was determined as 5.05.
Consider `Clc1ccc2c(c1)N(CCN1CCCC1)c1nc3ccccc3cc1S2` [compound 3], for which the chromatographic logP – broadly, a lipophilicity value derived from retention on a column – was 5.29.
Take `CN1CCCCC1CCN1c2cc(Cl)ccc2Sc2cc3ccccc3nc21` (centres unmarked) [compound 5]: the “log PTLC” value is recorded as 5.61.

Another data set has as its system PC3.
Test: not given
More on the design: method as in earlier work. The following applies: MTT assay; cited from earlier work.
For the molecule `COc1cccc2c1C(=O)c1c(O)c3c(c(O)c1C2=O)C[C@@](O)(C(=O)CO)C[C@@H]3O[C@H]1C[C@H](N)[C@H](O)[C@H](C)O1` [DX, doxorubicin, reference compound], the IC50 was 0.8 ± 0.1 µM.
As for `CN(C)CCCN1c2cc(Cl)ccc2Sc2cc3ccccc3nc21` [compound 2], the IC50 was 52.1 ± 7.1 µM.
Regarding `Clc1ccc2c(c1)N(CCN1CCCC1)c1nc3ccccc3cc1S2` [compound 3], the IC50 was 77.1 ± 9.4 µM.
For `CN1CCCCC1CCN1c2cc(Cl)ccc2Sc2cc3ccccc3nc21` (centres unmarked) [compound 5], the IC50 was 16.7 ± 1.8 µM.

Staying with this data set, now noted: selectivity index vs HaCaT; cited from earlier work.
As to `COc1cccc2c1C(=O)c1c(O)c3c(c(O)c1C2=O)C[C@@](O)(C(=O)CO)C[C@@H]3O[C@H]1C[C@H](N)[C@H](O)[C@H](C)O1` [DX, doxorubicin, reference compound], the “SI PC3” value is 0.15.
As to `CN(C)CCCN1c2cc(Cl)ccc2Sc2cc3ccccc3nc21` [compound 2], the “SI PC3” value is reported as 1.2.
As to `Clc1ccc2c(c1)N(CCN1CCCC1)c1nc3ccccc3cc1S2` [compound 3], the “SI PC3” value was 1.3.
With `CN1CCCCC1CCN1c2cc(Cl)ccc2Sc2cc3ccccc3nc21` (centres unmarked) [compound 5], the “SI PC3” value is listed as 0.7.

The subject of a further data set is standard strains of staphylococci.
Test: not given
The conditions noted are these: mainly against standard strains of staphylococci; cited from earlier work.
As to `CN(C)CCCN1c2cc(Cl)ccc2Sc2cc3ccccc3nc21` [compound 2], the antibacterial activity result was “moderate antibacterial activity”.
Turning to `Clc1ccc2c(c1)N(CCN1CCCC1)c1nc3ccccc3cc1S2` [compound 3], the antibacterial activity entry is on record as “moderate antibacterial activity”.

The subject of the next data set is HaCaT cells.
Test: not given
The following applies: MTT assay, normal cells; cited from earlier work.
On to `COc1cccc2c1C(=O)c1c(O)c3c(c(O)c1C2=O)C[C@@](O)(C(=O)CO)C[C@@H]3O[C@H]1C[C@H](N)[C@H](O)[C@H](C)O1` [DX, doxorubicin, reference compound], for which the IC50 is 0.3 ± 0.1 µM.
Consider `CN(C)CCCN1c2cc(Cl)ccc2Sc2cc3ccccc3nc21` [compound 2], for which the concentration for half-maximal inhibition (IC50) is 62.3 ± 2.5 µM.
For the molecule `Clc1ccc2c(c1)N(CCN1CCCC1)c1nc3ccccc3cc1S2` [compound 3], the IC50 was under 100 µM.
Turning to `CN1CCCCC1CCN1c2cc(Cl)ccc2Sc2cc3ccccc3nc21` (centres unmarked) [compound 5], the IC50 was 12.7 ± 1.9 µM.

Still in this data set, the particulars now being: in words; cited from earlier work.
For `CN(C)CCCN1c2cc(Cl)ccc2Sc2cc3ccccc3nc21` [compound 2], the “cytotoxic effects on HaCaT cells” value was “no cytotoxic effects”.

The next data set has as its system MDA.
Test: not given
More on the design: method as in earlier work. The following applies: MTT assay; cited from earlier work.
Turning to `COc1cccc2c1C(=O)c1c(O)c3c(c(O)c1C2=O)C[C@@](O)(C(=O)CO)C[C@@H]3O[C@H]1C[C@H](N)[C@H](O)[C@H](C)O1` [DX, doxorubicin, reference compound], the IC50 is 0.8 ± 0.1 µM.
`CN(C)CCCN1c2cc(Cl)ccc2Sc2cc3ccccc3nc21` [compound 2]: the IC50 is 52.1 ± 2.7 µM.
Consider `Clc1ccc2c(c1)N(CCN1CCCC1)c1nc3ccccc3cc1S2` [compound 3], for which the 50% inhibitory concentration (IC50) was 77.1 ± 1.6 µM.
As for `CN1CCCCC1CCN1c2cc(Cl)ccc2Sc2cc3ccccc3nc21` (centres unmarked) [compound 5], the IC50 was 16.7 ± 1.1 µM.

The same data set, now with this note: selectivity index vs HaCaT; cited from earlier work.
With `COc1cccc2c1C(=O)c1c(O)c3c(c(O)c1C2=O)C[C@@](O)(C(=O)CO)C[C@@H]3O[C@H]1C[C@H](N)[C@H](O)[C@H](C)O1` [DX, doxorubicin, reference compound], the “SI MDA” value is reported as 0.15.
As for `CN(C)CCCN1c2cc(Cl)ccc2Sc2cc3ccccc3nc21` [compound 2], the “SI MDA” value is 1.2.
With `Clc1ccc2c(c1)N(CCN1CCCC1)c1nc3ccccc3cc1S2` [compound 3], the “SI MDA” value was 1.3.
With `CN1CCCCC1CCN1c2cc(Cl)ccc2Sc2cc3ccccc3nc21` (centres unmarked) [compound 5], the “SI MDA” value is reported as 0.9.

A further data set concerns MiaPaCa-2.
Test: not given
Details: method as in earlier work. The following applies: MTT assay; cited from earlier work.
In the case of `COc1cccc2c1C(=O)c1c(O)c3c(c(O)c1C2=O)C[C@@](O)(C(=O)CO)C[C@@H]3O[C@H]1C[C@H](N)[C@H](O)[C@H](C)O1` [DX, doxorubicin, reference compound], the 50% inhibitory concentration (IC50) was 0.6 ± 0.2 µM.
Consider `CN(C)CCCN1c2cc(Cl)ccc2Sc2cc3ccccc3nc21` [compound 2], for which the IC50 was 40.2 ± 0.7 µM.
On to `Clc1ccc2c(c1)N(CCN1CCCC1)c1nc3ccccc3cc1S2` [compound 3], for which the IC50 is 57.4 ± 9.6 µM.
Turning to `CN1CCCCC1CCN1c2cc(Cl)ccc2Sc2cc3ccccc3nc21` (centres unmarked) [compound 5], the IC50 is 24.3 ± 3.5 µM.

The data set is the same for the next values; noted with them: selectivity index vs HaCaT; cited from earlier work.
In the case of `COc1cccc2c1C(=O)c1c(O)c3c(c(O)c1C2=O)C[C@@](O)(C(=O)CO)C[C@@H]3O[C@H]1C[C@H](N)[C@H](O)[C@H](C)O1` [DX, doxorubicin, reference compound], the “SI MiaPaCa-2” value is recorded as 0.14.
On to `CN(C)CCCN1c2cc(Cl)ccc2Sc2cc3ccccc3nc21` [compound 2], for which the “SI MiaPaCa-2” value is 1.6.
`Clc1ccc2c(c1)N(CCN1CCCC1)c1nc3ccccc3cc1S2` [compound 3]: the “SI MiaPaCa-2” value is given as 1.7.
As to `CN1CCCCC1CCN1c2cc(Cl)ccc2Sc2cc3ccccc3nc21` (centres unmarked) [compound 5], the “SI MiaPaCa-2” value is 0.5.

The record behind these values is PMC12384454, “Study of the Lipophilicity of Tetracyclic Anticancer Azaphenothiazines” (Biomolecules, 2025).
